Measured values as given in patent US4228292A, “N-Substituted benzothiazolines and benzoxazolines and their use as herbicides and plant growth regulants” (Monsanto Company, priority 1978, dated 1980).

Experiments:
Assay type in all cases: in vivo
Hemp Sesbania [1] = assay: post-emergent herbicidal test; conditions: R
Description: (§1) The post-emergent tests were conducted as follows:
(§2) The herbicidal active ingredients are applied in spray form to two or three-week old specimens of various plant species. The spray, a solution or wettable powder suspension containing the appropriate rate of herbicidal active ingredient to give the desired test rate and a surfactant, is applied to the plants. The treated plants are placed in a greenhouse and approximately two or four weeks later the effects are observed and recorded. The results are shown in Tables IX and X in which the post-emergent herbicidal rating code is as follows: […]

Panicum Spp [2] = assay: post-emergent herbicidal test; conditions: S
Description: as §1, §2

Sorghum [3] = assay: post-emergent herbicidal test; conditions: P
Description: as §1, §2

Wheat [4] = assay: post-emergent herbicidal test; conditions: N
Description: as §1, §2

Crabgrass [5] = assay: post-emergent herbicidal test; conditions: T
Description: as §1, §2

Rice [6] = assay: post-emergent herbicidal test; conditions: O
Description: as §1, §2

Wild Buckwheat [7] = assay: post-emergent herbicidal test; conditions: Q
Description: as §1, §2

Soybean [8] = assay: post-emergent herbicidal test; conditions: L
Description: as §1, §2

Sugar Beet [9] = assay: post-emergent herbicidal test; conditions: M
Description: as §1, §2

Hemp Sesbania [10] = assay: pre-emergent herbicidal test; conditions: R
Description: (§3) The pre-emergent test was conducted as follows:
(§4) A good grade of top soil was placed in aluminum pans and compactd to a depth of 0.95 to 1.27 cm. from the top of the pan. On the top of the soil was placed a predetermined number of seeds or vegetative propagules of various plant species. The soil required to level fill the pans after seeding or adding vegetative propagules was weighed into a pan. A known amount of the herbicidal active ingredient applied in a solvent or as a wettable powder and the soil were thoroughly mixed, and used as a cover layer for prepared pans. After treatment the pans were moved into a greenhouse bench where they were watered from below as needed to give adequate moisture for germination and growth.
(§5) A herbicidal rating code was used to signify the extent of phytotoxicity of each species. The ratings are defined as follows: […]

Panicum Spp [11] = assay: pre-emergent herbicidal test; conditions: S
Description: as §3, §4, §5

Sorghum [12] = assay: pre-emergent herbicidal test; conditions: P
Description: as §3, §4, §5

Wheat [13] = assay: pre-emergent herbicidal test; conditions: N
Description: as §3, §4, §5

Crabgrass [14] = assay: pre-emergent herbicidal test; conditions: T
Description: as §3, §4, §5

Rice [15] = assay: pre-emergent herbicidal test; conditions: O
Description: as §3, §4, §5

Wild Buckwheat [16] = assay: pre-emergent herbicidal test; conditions: Q
Description: as §3, §4, §5

Soybean [17] = assay: pre-emergent herbicidal test; conditions: L
Description: as §3, §4, §5

Sugar Beet [18] = assay: pre-emergent herbicidal test; conditions: M
Description: as §3, §4, §5
Further: ranges in brackets are in %.

COC(=N)Cn1c(=O)sc2ccccc21 [Compound 37]
post-emergent herbicidal rating (Hemp Sesbania [1]; 1.12 kg/h, 4 WAT): 2 (50-74) | post-emergent herbicidal rating (Hemp Sesbania [1]; 5.6 kg/h, 4 WAT): 3 (75-99) | post-emergent herbicidal rating (Panicum Spp [2]; 1.12 kg/h, 4 WAT): 0 (0-24) | post-emergent herbicidal rating (Panicum Spp [2]; 5.6 kg/h, 4 WAT): 0 (0-24) | post-emergent herbicidal rating (Sorghum [3]; 1.12 kg/h, 4 WAT): 0 (0-24) | post-emergent herbicidal rating (Sorghum [3]; 5.6 kg/h, 4 WAT): 0 (0-24) | post-emergent herbicidal rating (Wheat [4]; 1.12 kg/h, 4 WAT): 0 (0-24) | post-emergent herbicidal rating (Wheat [4]; 5.6 kg/h, 4 WAT): 0 (0-24) | post-emergent herbicidal rating (Crabgrass [5]; 1.12 kg/h, 4 WAT): 0 (0-24) | post-emergent herbicidal rating (Crabgrass [5]; 5.6 kg/h, 4 WAT): 1 (25-49) | post-emergent herbicidal rating (Rice [6]; 1.12 kg/h, 4 WAT): 0 (0-24) | post-emergent herbicidal rating (Rice [6]; 5.6 kg/h, 4 WAT): 0 (0-24) | post-emergent herbicidal rating (Wild Buckwheat [7]; 1.12 kg/h, 4 WAT): 2 (50-74) | post-emergent herbicidal rating (Wild Buckwheat [7]; 5.6 kg/h, 4 WAT): 4 (100) | post-emergent herbicidal rating (Soybean [8]; 1.12 kg/h, 4 WAT): 1 (25-49) | post-emergent herbicidal rating (Soybean [8]; 5.6 kg/h, 4 WAT): 2 (50-74) | post-emergent herbicidal rating (Sugar Beet [9]; 1.12 kg/h, 4 WAT): 2 (50-74) | post-emergent herbicidal rating (Sugar Beet [9]; 5.6 kg/h, 4 WAT): 2 (50-74)

CCOC(=N)Cn1c(=O)sc2ccccc21 [Compound 25]
pre-emergent herbicidal rating (Hemp Sesbania [10]; 0.056 kg/h, 2 WAT): 0 (0-24) | pre-emergent herbicidal rating (Hemp Sesbania [10]; 0.28 kg/h, 2 WAT): 0 (0-24) | pre-emergent herbicidal rating (Hemp Sesbania [10]; 1.12 kg/h, 4 WAT): 2 (50-74) | pre-emergent herbicidal rating (Hemp Sesbania [10]; 5.6 kg/h, 4 WAT): 3 (75-100) | pre-emergent herbicidal rating (Panicum Spp [11]; 0.056 kg/h, 2 WAT): 0 (0-24) | pre-emergent herbicidal rating (Panicum Spp [11]; 0.28 kg/h, 2 WAT): 0 (0-24) | pre-emergent herbicidal rating (Panicum Spp [11]; 1.12 kg/h, 4 WAT): 0 (0-24) | pre-emergent herbicidal rating (Panicum Spp [11]; 5.6 kg/h, 4 WAT): 0 (0-24) | pre-emergent herbicidal rating (Sorghum [12]; 0.056 kg/h, 2 WAT): 0 (0-24) | pre-emergent herbicidal rating (Sorghum [12]; 0.28 kg/h, 2 WAT): 0 (0-24) | pre-emergent herbicidal rating (Sorghum [12]; 1.12 kg/h, 4 WAT): 0 (0-24) | pre-emergent herbicidal rating (Sorghum [12]; 5.6 kg/h, 4 WAT): 0 (0-24) | pre-emergent herbicidal rating (Wheat [13]; 0.056 kg/h, 2 WAT): 0 (0-24) | pre-emergent herbicidal rating (Wheat [13]; 0.28 kg/h, 2 WAT): 0 (0-24) | pre-emergent herbicidal rating (Wheat [13]; 1.12 kg/h, 4 WAT): 0 (0-24) | pre-emergent herbicidal rating (Wheat [13]; 5.6 kg/h, 4 WAT): 1 (25-49) | pre-emergent herbicidal rating (Crabgrass [14]; 0.056 kg/h, 2 WAT): 0 (0-24) | pre-emergent herbicidal rating (Crabgrass [14]; 0.28 kg/h, 2 WAT): 0 (0-24) | pre-emergent herbicidal rating (Crabgrass [14]; 1.12 kg/h, 4 WAT): 0 (0-24) | pre-emergent herbicidal rating (Crabgrass [14]; 5.6 kg/h, 4 WAT): 2 (50-74) | pre-emergent herbicidal rating (Rice [15]; 0.056 kg/h, 2 WAT): 0 (0-24) | pre-emergent herbicidal rating (Rice [15]; 0.28 kg/h, 2 WAT): 0 (0-24) | pre-emergent herbicidal rating (Rice [15]; 1.12 kg/h, 4 WAT): 0 (0-24) | pre-emergent herbicidal rating (Rice [15]; 5.6 kg/h, 4 WAT): 1 (25-49) | pre-emergent herbicidal rating (Wild Buckwheat [16]; 0.056 kg/h, 2 WAT): 0 (0-24) | pre-emergent herbicidal rating (Wild Buckwheat [16]; 0.28 kg/h, 2 WAT): 0 (0-24) | pre-emergent herbicidal rating (Wild Buckwheat [16]; 1.12 kg/h, 4 WAT): 1 (25-49) | pre-emergent herbicidal rating (Wild Buckwheat [16]; 5.6 kg/h, 4 WAT): 2 (50-74) | pre-emergent herbicidal rating (Soybean [17]; 0.056 kg/h, 2 WAT): 0 (0-24) | pre-emergent herbicidal rating (Soybean [17]; 0.28 kg/h, 2 WAT): 1 (25-49) | pre-emergent herbicidal rating (Soybean [17]; 1.12 kg/h, 4 WAT): 2 (50-74) | pre-emergent herbicidal rating (Soybean [17]; 5.6 kg/h, 4 WAT): 3 (75-100) | pre-emergent herbicidal rating (Sugar Beet [18]; 0.056 kg/h, 2 WAT): 0 (0-24) | pre-emergent herbicidal rating (Sugar Beet [18]; 0.28 kg/h, 2 WAT): 1 (25-49) | pre-emergent herbicidal rating (Sugar Beet [18]; 1.12 kg/h, 4 WAT): 1 (25-49) | pre-emergent herbicidal rating (Sugar Beet [18]; 5.6 kg/h, 4 WAT): 3 (75-100)

COC(=N)Cn1c(=O)sc2ccccc21 [Compound 38]
post-emergent herbicidal rating (Hemp Sesbania [1]; 0.28 kg/h, 2 WAT): 0 (0-24) | post-emergent herbicidal rating (Hemp Sesbania [1]; 1.12 kg/h, 4 WAT): 1 (25-49) | post-emergent herbicidal rating (Panicum Spp [2]; 0.28 kg/h, 2 WAT): 0 (0-24) | post-emergent herbicidal rating (Panicum Spp [2]; 1.12 kg/h, 4 WAT): 0 (0-24) | post-emergent herbicidal rating (Sorghum [3]; 0.28 kg/h, 2 WAT): 0 (0-24) | post-emergent herbicidal rating (Sorghum [3]; 1.12 kg/h, 4 WAT): 0 (0-24) | post-emergent herbicidal rating (Wheat [4]; 0.28 kg/h, 2 WAT): 0 (0-24) | post-emergent herbicidal rating (Wheat [4]; 1.12 kg/h, 4 WAT): 0 (0-24) | post-emergent herbicidal rating (Crabgrass [5]; 0.28 kg/h, 2 WAT): 0 (0-24) | post-emergent herbicidal rating (Crabgrass [5]; 1.12 kg/h, 4 WAT): 0 (0-24) | post-emergent herbicidal rating (Rice [6]; 0.28 kg/h, 2 WAT): 0 (0-24) | post-emergent herbicidal rating (Rice [6]; 1.12 kg/h, 4 WAT): 1 (25-49) | post-emergent herbicidal rating (Wild Buckwheat [7]; 0.28 kg/h, 2 WAT): 0 (0-24) | post-emergent herbicidal rating (Wild Buckwheat [7]; 1.12 kg/h, 4 WAT): 2 (50-74) | post-emergent herbicidal rating (Soybean [8]; 0.28 kg/h, 2 WAT): 1 (25-49) | post-emergent herbicidal rating (Soybean [8]; 1.12 kg/h, 4 WAT): 1 (25-49) | post-emergent herbicidal rating (Sugar Beet [9]; 0.28 kg/h, 2 WAT): 1 (25-49) | post-emergent herbicidal rating (Sugar Beet [9]; 1.12 kg/h, 4 WAT): 2 (50-74)

CCCOC(=N)Cn1c(=O)sc2ccccc21 [Compound 30]
pre-emergent herbicidal rating (Hemp Sesbania [10]; 0.28 kg/h, 2 WAT): 1 (25-49) | pre-emergent herbicidal rating (Hemp Sesbania [10]; 1.12 kg/h, 4 WAT): 2 (50-74) | pre-emergent herbicidal rating (Hemp Sesbania [10]; 5.6 kg/h, 4 WAT): 3 (75-100) | pre-emergent herbicidal rating (Panicum Spp [11]; 0.28 kg/h, 2 WAT): 0 (0-24) | pre-emergent herbicidal rating (Panicum Spp [11]; 1.12 kg/h, 4 WAT): 0 (0-24) | pre-emergent herbicidal rating (Panicum Spp [11]; 5.6 kg/h, 4 WAT): 0 (0-24) | pre-emergent herbicidal rating (Sorghum [12]; 0.28 kg/h, 2 WAT): 0 (0-24) | pre-emergent herbicidal rating (Sorghum [12]; 1.12 kg/h, 4 WAT): 0 (0-24) | pre-emergent herbicidal rating (Sorghum [12]; 5.6 kg/h, 4 WAT): 0 (0-24) | pre-emergent herbicidal rating (Wheat [13]; 0.28 kg/h, 2 WAT): 0 (0-24) | pre-emergent herbicidal rating (Wheat [13]; 1.12 kg/h, 4 WAT): 0 (0-24) | pre-emergent herbicidal rating (Wheat [13]; 5.6 kg/h, 4 WAT): 1 (25-49) | pre-emergent herbicidal rating (Crabgrass [14]; 0.28 kg/h, 2 WAT): 0 (0-24) | pre-emergent herbicidal rating (Crabgrass [14]; 1.12 kg/h, 4 WAT): 2 (50-74) | pre-emergent herbicidal rating (Crabgrass [14]; 5.6 kg/h, 4 WAT): 3 (75-100) | pre-emergent herbicidal rating (Rice [15]; 0.28 kg/h, 2 WAT): 0 (0-24) | pre-emergent herbicidal rating (Rice [15]; 1.12 kg/h, 4 WAT): 0 (0-24) | pre-emergent herbicidal rating (Rice [15]; 5.6 kg/h, 4 WAT): 1 (25-49) | pre-emergent herbicidal rating (Wild Buckwheat [16]; 0.28 kg/h, 2 WAT): 0 (0-24) | pre-emergent herbicidal rating (Wild Buckwheat [16]; 1.12 kg/h, 4 WAT): 1 (25-49) | pre-emergent herbicidal rating (Wild Buckwheat [16]; 5.6 kg/h, 4 WAT): 2 (50-74) | pre-emergent herbicidal rating (Soybean [17]; 0.28 kg/h, 2 WAT): 0 (0-24) | pre-emergent herbicidal rating (Soybean [17]; 1.12 kg/h, 4 WAT): 1 (25-49) | pre-emergent herbicidal rating (Soybean [17]; 5.6 kg/h, 4 WAT): 3 (75-100) | pre-emergent herbicidal rating (Sugar Beet [18]; 0.28 kg/h, 2 WAT): 1 (25-49) | pre-emergent herbicidal rating (Sugar Beet [18]; 1.12 kg/h, 4 WAT): 1 (25-49) | pre-emergent herbicidal rating (Sugar Beet [18]; 5.6 kg/h, 4 WAT): 3 (75-100)
